This note sets out measurements from patent publication US20040110676A1, “Methods for modulating cell survival” (priority 2000, published 2004).

For one series, the target named is AKT (Homo sapiens, UniProt P31749). Kind of series: In vitro kinase reaction, phosphorylation of htt by AKT (autoradiography). Format: biochemical. The settings on record: S421A-mutant N-terminal one-third of htt as substrate, compared with wild-type, purified recombinant active AKT. An excerpt: Serine 421 of huntingtin can be phosphorylated by purified recombinant active AKT in vitro (FIG. 18). Immunoprecipitated recombinant protein containing the N-terminal one-third of htt was used as a substrate for AKT. Phosphorylation was detected by autoradiography since radiolabelled ATP was a component of the in vitro kinase reaction. When serine 421 was mutated to alanine (S421A), a non-phosphorylatable amino acid, 64% of the phosphorylation signal on huntingtin was ablated. […] Other sites for AKT phosphorylation are threonines 1024 and 2068.
Sequence of AKT (P31749 whole entry): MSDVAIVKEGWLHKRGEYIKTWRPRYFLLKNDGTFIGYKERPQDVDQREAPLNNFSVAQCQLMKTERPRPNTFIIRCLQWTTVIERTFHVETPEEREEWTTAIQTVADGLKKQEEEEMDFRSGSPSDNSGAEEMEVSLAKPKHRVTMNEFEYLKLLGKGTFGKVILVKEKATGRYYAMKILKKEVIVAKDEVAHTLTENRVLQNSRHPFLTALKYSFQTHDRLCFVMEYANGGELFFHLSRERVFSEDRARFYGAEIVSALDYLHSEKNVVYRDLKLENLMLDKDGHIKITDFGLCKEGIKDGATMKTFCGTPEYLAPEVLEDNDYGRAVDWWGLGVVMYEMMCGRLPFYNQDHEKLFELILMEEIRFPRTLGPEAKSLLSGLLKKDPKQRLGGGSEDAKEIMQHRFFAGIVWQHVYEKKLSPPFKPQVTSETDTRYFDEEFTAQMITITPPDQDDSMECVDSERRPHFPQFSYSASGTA

Another series deals with HBL-100 cells. The series is described as follows: Anoikis assay on poly-HEMA coated plates, annexin-V-FITC/PI. In kind it is cell-based, human. An excerpt:
The human breast cell line HBL-100, transformed by the SV40 virus large T antigen with epithelial like morphology, was used to investigate the importance of the huntingtin serine residue at position 421 with respect to phosphorylation towards anoikis resistant, anchorage independent cell growth. HBL-100 cells were transfected with a 3949-15wt huntingtin vector construct, or a similar vector in which the normal serine at position 421 was mutated to an alanine residue. This mutation prevents phosphorylation from occurring at that site, which is presumed to be mediated by the kinase AKT/PKB. Cells were cultured in DMEM with 5% serum for 24 hours either on untreated tissue culture plastic or on poly-HEMA-coated plastic plates. Cells were harvested, counted and viability was assessed via annexin-V-FITC and propidium iodide (PI) staining.
HBL-100 cells were transiently transfected with a FLAG-tagged 3949-15wt htt, or a FLAG-tagged (S-A) unphosphorylatable mutant htt. Wild-type cells were also treated with LY294002, a specific PI-3 kinase inhibitor, at a concentration of 10 μM, to determine whether inhibition of kinase function could abrogate the induction of anoikis. Western blot analysis confirming the expression of both full length and 3949 huntingtin in the FLAG-tagged constructs (FIG. 26B). The presence of endogenous huntingtin in the parental cells is also shown. […]

Another series concerns spermatogenic cells. Kind of series: Testicular histology, ultrastructure and TUNEL labeling. In kind it is in vivo. To be noted: endogenous htt expression increased to 100% of normal levels. As for the experimental part:
Testes were removed from anesthetized animals and immediately placed in fixative (1.5% paraformaldehyde, 1.5% glutaraldehyde, 0.1 M Na cacodylate, pH 7.3). The capsules were nicked with a scalpel and then the organs left to fix for approximately 1 hour. The testes were cut into small pieces and fixed for an additional hour. The pieces were washed with buffer, post-fixed in buffered 1% OSO4 on ice for 1 hour, washed with dH2O, and stained en bloc in 1% aqueous uranyl acetate. The samples were washed with dH2O, dehydrated through a graded concentration series of ethyl alcohols, and then embedded in JEMBED™812 (J. B. EM Services Inc., Point-Claire, Quebec).
For histological analysis, thick sections (1 μm) were stained with toluidine blue and evaluated on a Zeiss Axiophot microscope. For ultrastructural analysis, thin sections were cut on an ultramicrotome, stained with lead citrate and uranyl acetate, and then viewed and photographed on a Philips 300 electron microscope operated at 60 kV.
TUNEL™ labeling (Boehringer Mannheim) was performed using standard techniques on frozen sections of testes that were lightly immersion fixed in 3% paraformaldehyde. […]
The cellular effect of the htt expression was determined by analyzing the testicular morphology of YAC rescued htt knockout mice. […]
TUNEL™ staining was used to quantitate apoptosis in the YAC rescued transgenic mice. […]

Another series has as its system HEK 293T cells. The series is described as follows: MTT (WST-1) cell viability assay, tamoxifen-induced cell death. In kind it is cell-based, human. To be noted: transfected HEK 293T cells, tamoxifen 4 hours, compared with LacZ control. Here is the method: The survival effect of htt was measured in vitro using the MTT assay, in which a reduction in mitochondrial viability is indicative of cell death. Human embryonic kidney (HEK) 293T cells were seeded at a density of 5×10^4 cells into 96-well plates and transfected with 0.1 μg htt or LacZ DNA using a standard calcium phosphate protocol (Hackam et al. (1998) J Cell Biol. 141: 1097-105). Transfected cells in 96-well plates were treated at 48 hours post-transfection with a various concentrations of tamoxifen, a cell permeable compound that leads to caspase activation and cell death, for 4 hours. Cell viability was measured, […], by incubating the cells for 2 hours in a 1:10 dilution of WST-1 reagent (Boehringer Mannheim) and release of formazan from mitochondria was quantified by the MTT assay at 450 nm using an ELISA plate reader (Dynatech Laboratories). Mock transfected, vector only and LacZ transfected cells served as controls for transfection-related toxicity. Statistical analyses of the cell death data were performed using one-way ANOVA and Newman-Keuls post-comparison tests.
A general note: Formazan colour is commonly taken as a measure of viable cells.

Series [1] concerns truncated mutant htt with 128 CAG repeats in HEK 293T cells. Kind of series: Mutant htt aggregate formation, immunofluorescence. Format: cell-based, human. To be noted: vs LacZ control. Here is the method:
The C-terminus of htt was co-transfected with mutant htt and aggregate formation was induced with tamoxifen or HIP-1 expression as described herein. HEK 293T cells were transfected with truncated mutant htt with 128 CAG repeats and processed for immunofluorescence by growing cells on glass coverslips and transfecting at 30% confluency using a standard calcium phosphate protocol. At 48 hours post-transfection, the cells were treated with 35 μM tamoxifen (Sigma) for 1 hour to induce aggregate formation, then processed for immunofluorescence. The cells were fixed in 4% paraformaldehyde/PBS, permeabilised in 0.5% Triton X-100/PBS for 5 min, then incubated with anti-htt antibody MAB2166 (Chemicon) (1:2500 dilution) diluted in 0.4% BSA/PBS. Secondary antibodies conjugated to FITC (Jackson Laboratories) were used at 1:600-1:800 dilutions, and DAPI (4′,6′-diamindino-2-phenylindole, Sigma) was used as a nuclear counter-stain. Appropriate control experiments were performed to determine the specificity of the antibodies, including secondary antibody only and mock transfected cells. The cells were viewed with a Zeiss (Axioscope) microscope, digitally captured with a CCD camera (Princeton Instrument Inc.) and the images were colourised and overlapped using the Eclipse (Empix Imaging Inc.) software program. […]

The test system of series [2] is NT2 cells. The series is described as follows: Mutant htt (HD138)-induced cell death, apoptotic morphology scoring. Format: cell-based, human. To be noted: NT2 cells co-transfected with HD138, tamoxifen stimulus, vs pyruvate kinase control, p=0.002. As for the experimental part:
Mutant htt protein (HD138) was co-transfected with control protein, pyruvate kinase (PK), or with htt C-terminus (C-ter) into NT2 cells (a human neuronal precursor cell line) at 40% density using lipofectamine (GibcoBRL), and cell death in response to tamoxifen stimulus was measured. Cell death was quantified in NT2 cells by co-transfection of the expression constructs with a plasmid containing the LacZ gene at a 4:1 ratio, and the cells were stained for β-galactosidase activity at 24 hours post-transfection using standard procedures. The survival effect of the htt protein was assessed by incubating transfected cells with the pro-apoptotic drug tamoxifen for 4 hrs at various concentrations. An apoptotic morphology was scored as blue-staining cells that were rounded up, blebbed and condensed, which were clearly distinguished from viable cells that were flat and had neurite-like extensions. The cell death data was analyzed for statistical significance using one-way ANOVA and Newman-Keuls post-comparison tests.

Series [3] concerns NT2 cells. The series is described as follows: HIP-1-induced cell death, morphology scoring. Format: cell-based, human. To be noted: NT2 cells co-transfected with HIP-1, vs control protein PK, p<0.01. As for the experimental part:
HIP-1-induced toxicity was used to assess whether the C-terminus of htt confers protection against a toxic protein-mediated cell death, in addition to its effect on tamoxifen-induced death. NT2 cells were co-transfected with mutant HIP-1 and the C-terminus, or HIP-1 and the control pyruvate kinase cDNA, using lipofectamine (GibcoBRL). Cell death was measured by morphological changes using co-transfection of a plasmid containing the LacZ gene, as described herein. […] Thus, the protective activity of htt C-terminus may have a functional role in HIP-1-mediated cell death in vivo.

The subject of series [4] is immunoprecipitated recombinant protein containing the N-terminal one-third of htt.
Series [5] relates to recombinant N-terminal one-third of htt with serine 421 mutated to alanine (S421A).
Sequence of recombinant N-terminal one-third of htt with serine 421 mutated to alanine (S421A) (chain, as listed by the source S421A): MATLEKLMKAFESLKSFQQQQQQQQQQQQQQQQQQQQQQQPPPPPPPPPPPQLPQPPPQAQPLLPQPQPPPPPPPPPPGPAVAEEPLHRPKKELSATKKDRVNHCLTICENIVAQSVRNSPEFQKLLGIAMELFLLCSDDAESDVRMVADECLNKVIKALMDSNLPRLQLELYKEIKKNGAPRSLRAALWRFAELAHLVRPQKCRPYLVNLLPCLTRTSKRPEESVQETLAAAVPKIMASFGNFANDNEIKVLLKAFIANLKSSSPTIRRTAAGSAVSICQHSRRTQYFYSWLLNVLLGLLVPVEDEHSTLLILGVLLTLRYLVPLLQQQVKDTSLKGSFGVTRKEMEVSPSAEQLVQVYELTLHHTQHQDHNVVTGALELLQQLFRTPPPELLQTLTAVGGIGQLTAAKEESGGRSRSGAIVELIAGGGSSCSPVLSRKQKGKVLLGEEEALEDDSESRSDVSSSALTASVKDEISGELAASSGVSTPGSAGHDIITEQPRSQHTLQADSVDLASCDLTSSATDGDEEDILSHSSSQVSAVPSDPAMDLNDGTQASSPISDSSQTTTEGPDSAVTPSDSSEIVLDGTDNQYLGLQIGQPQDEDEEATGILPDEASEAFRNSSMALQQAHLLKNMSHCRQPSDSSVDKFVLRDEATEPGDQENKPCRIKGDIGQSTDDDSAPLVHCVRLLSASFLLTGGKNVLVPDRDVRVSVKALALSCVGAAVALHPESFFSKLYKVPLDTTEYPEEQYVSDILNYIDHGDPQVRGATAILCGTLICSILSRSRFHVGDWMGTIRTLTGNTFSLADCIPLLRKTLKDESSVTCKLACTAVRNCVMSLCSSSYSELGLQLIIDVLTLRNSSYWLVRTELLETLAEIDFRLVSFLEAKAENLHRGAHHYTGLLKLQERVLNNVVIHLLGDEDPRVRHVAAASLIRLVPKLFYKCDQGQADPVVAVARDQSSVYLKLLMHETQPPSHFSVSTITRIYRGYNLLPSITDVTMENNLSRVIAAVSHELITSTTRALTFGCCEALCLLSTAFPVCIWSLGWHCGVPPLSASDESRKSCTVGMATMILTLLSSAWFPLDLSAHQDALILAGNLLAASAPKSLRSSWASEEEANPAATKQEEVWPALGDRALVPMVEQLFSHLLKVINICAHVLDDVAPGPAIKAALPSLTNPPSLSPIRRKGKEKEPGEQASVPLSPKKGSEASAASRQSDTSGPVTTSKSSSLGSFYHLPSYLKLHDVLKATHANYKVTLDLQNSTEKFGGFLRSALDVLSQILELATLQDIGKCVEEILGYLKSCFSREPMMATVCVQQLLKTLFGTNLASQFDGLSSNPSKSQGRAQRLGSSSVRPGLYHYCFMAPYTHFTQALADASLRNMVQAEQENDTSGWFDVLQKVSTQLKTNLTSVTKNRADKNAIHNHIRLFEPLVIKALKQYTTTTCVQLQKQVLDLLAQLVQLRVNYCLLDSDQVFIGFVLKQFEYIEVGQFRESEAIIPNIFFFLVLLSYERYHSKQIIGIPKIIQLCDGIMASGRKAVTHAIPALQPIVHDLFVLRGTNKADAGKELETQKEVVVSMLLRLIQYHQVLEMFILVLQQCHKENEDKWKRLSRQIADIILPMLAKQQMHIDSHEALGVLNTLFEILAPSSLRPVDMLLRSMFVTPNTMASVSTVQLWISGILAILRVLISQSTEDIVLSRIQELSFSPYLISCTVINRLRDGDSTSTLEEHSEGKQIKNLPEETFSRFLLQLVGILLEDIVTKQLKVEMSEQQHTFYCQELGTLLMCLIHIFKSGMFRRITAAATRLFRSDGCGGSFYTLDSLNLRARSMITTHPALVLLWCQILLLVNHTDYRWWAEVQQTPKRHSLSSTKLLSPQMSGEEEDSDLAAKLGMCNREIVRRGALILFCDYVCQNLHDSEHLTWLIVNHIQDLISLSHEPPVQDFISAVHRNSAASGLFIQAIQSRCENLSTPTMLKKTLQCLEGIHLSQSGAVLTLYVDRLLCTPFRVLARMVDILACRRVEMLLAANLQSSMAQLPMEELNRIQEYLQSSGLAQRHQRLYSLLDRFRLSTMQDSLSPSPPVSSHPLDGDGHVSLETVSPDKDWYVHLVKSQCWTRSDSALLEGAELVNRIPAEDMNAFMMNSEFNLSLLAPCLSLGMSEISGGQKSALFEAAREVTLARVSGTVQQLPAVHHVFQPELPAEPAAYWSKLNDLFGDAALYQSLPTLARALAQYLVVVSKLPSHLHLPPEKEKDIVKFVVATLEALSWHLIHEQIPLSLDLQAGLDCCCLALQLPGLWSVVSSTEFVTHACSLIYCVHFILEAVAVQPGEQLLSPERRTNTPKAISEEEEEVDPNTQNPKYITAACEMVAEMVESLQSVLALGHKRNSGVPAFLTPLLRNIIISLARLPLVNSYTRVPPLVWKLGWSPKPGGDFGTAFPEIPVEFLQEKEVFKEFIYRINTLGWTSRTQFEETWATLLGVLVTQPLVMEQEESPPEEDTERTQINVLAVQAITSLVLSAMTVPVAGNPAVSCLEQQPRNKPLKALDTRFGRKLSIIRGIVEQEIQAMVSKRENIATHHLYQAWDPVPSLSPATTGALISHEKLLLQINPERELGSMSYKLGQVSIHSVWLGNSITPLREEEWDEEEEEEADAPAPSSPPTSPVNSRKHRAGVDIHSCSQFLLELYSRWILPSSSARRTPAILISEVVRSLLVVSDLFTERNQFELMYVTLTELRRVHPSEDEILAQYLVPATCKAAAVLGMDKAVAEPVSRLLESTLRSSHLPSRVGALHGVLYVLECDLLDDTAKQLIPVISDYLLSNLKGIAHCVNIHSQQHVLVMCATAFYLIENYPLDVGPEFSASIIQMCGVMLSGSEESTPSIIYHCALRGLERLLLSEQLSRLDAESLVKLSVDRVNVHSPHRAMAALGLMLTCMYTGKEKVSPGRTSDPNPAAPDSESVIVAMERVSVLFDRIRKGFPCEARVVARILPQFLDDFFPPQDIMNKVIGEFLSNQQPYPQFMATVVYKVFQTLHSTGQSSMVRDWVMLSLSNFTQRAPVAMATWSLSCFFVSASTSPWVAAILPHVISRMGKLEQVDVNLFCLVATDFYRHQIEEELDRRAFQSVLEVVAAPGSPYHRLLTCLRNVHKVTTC

Sequence of immunoprecipitated recombinant protein containing the N-terminal one-third of htt (chain, as listed by the source): as the sequence (chain, as listed by the source S421A) above, with A421S counted along it

Turning to “S421A: htt with serine 421 replaced by alanine, unphosphorylatable”, the “phosphorylation signal on huntingtin ablated” value with AKT was 64%. In addition, the “anoikis resistant growth in detached state (kinase inhibition study)” value with HBL-100 cells (HBL-100 cells transiently transfected with FLAG-tagged constructs, LY294002 10 μM) is listed as “grew poorly in a detached state”. Also, in the series with HBL-100 cells (transfected HBL-100 cells, 24 hours, poly-HEMA), the “anoikis resistance, growth attached or detached” value is reported as “behaved similarly to untransfected cells”.
For the substance “endogenous htt: murine wild-type htt expressed from the Hdh gene”, the “effect on degenerative testicular phenotype of YAC72 mice” value in the series on spermatogenic cells is given as “completely rescued the degenerative testicular phenotype”.
For the substance “htt C-terminus: C-terminal fragment of huntingtin, e.g. amino acids 585-3144 of SEQ ID NO: 1, expressed by transfection”, in the series with HEK 293T cells, the “tamoxifen-induced cell death (mitochondrial viability)” value is on record as “protects HEK 293T cells from tamoxifen-induced cell death”. Further, the “number of aggregates formed by truncated mutant htt (1955-128)” value in series [1] (aggregates induced by HIP-1 expression) was “reduces the number of aggregates”; in series [1] (aggregates induced by tamoxifen stimulus (35 μM, 1 hour)), “reduces the number of aggregates”. In the series on NT2 cells [2], the HD138-dependent cell death entry was “reduced HD138-dependent cell death”. Moreover, the “HIP-1 mediated cell death” value in the series with NT2 cells [3] is recorded as “reduced HIP-1 mediated cell death”.
For purified recombinant active AKT, in series [4], the “phosphorylation detected by autoradiography (in vitro kinase reaction with radiolabelled ATP)” value is given as “Serine 421 of huntingtin can be phosphorylated by purified recombinant active AKT in vitro”. Further, the “phosphorylation signal ablated (autoradiography, in vitro kinase reaction)” value in [5] was 64% of the phosphorylation signal on huntingtin was ablated.
